Experimental data published in ChEMBL document CHEMBL4823254, “Tetrahydroquinoline-Capped Histone Deacetylase 6 Inhibitor SW-101 Ameliorates Pathological Phenotypes in a Charcot-Marie-Tooth Type 2A Mouse Model” (J Med Chem, 2021).
The source made the active and inactive calls.

Legend:
[1] = Genotoxicity in Salmonella typhimurium TA1537 at 5 to 100 uM in absence of liver S9 fraction by Ames test; format: toxicity; conditions: salmonella enterica subsp. enterica serovar typhimurium, s9, 100 µM; dose 5-100 µM
[2] = biological target: T1, Histone deacetylase 8 (Homo sapiens, UniProt Q9BY41)
T1 sequence (Q9BY41 whole entry): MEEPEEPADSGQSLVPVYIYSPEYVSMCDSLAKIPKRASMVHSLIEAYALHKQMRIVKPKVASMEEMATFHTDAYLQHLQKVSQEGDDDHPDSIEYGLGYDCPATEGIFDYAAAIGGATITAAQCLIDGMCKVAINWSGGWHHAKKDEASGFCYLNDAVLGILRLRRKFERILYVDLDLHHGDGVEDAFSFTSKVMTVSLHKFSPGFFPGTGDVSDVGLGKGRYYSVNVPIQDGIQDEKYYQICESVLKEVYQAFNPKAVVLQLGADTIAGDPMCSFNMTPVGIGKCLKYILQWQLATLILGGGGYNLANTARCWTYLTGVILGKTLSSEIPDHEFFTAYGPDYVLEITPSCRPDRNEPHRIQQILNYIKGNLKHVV
Description: Inhibition of recombinant human HDAC8 using Boc-Lys(TFA)-AMC as substrate preincubated for 10 mins followed by substrate addition and measured after 30 mins by fluorescence-based assay

[3] = Genotoxicity in Salmonella typhimurium TA1537 at 5 to 100 uM in presence of liver S9 fraction by Ames test; format: toxicity; conditions: salmonella enterica subsp. enterica serovar typhimurium, s9, 100 µM; dose 5-100 µM
[4] = biological target: T2, Protein deacetylase HDAC6 (Mus musculus) (UniProt Q9Z2V5); assay: In vivo inhibition of HDAC6 in hMFN2-induced CMT2A transgenic mouse model assessed as increase in acetylated tubulin in distal sciatic nerve tissue at 20 mg/kg, ip qd administered for 22 weeks by Western blot analysis; format: functional, organism-based
T2 sequence (whole entry): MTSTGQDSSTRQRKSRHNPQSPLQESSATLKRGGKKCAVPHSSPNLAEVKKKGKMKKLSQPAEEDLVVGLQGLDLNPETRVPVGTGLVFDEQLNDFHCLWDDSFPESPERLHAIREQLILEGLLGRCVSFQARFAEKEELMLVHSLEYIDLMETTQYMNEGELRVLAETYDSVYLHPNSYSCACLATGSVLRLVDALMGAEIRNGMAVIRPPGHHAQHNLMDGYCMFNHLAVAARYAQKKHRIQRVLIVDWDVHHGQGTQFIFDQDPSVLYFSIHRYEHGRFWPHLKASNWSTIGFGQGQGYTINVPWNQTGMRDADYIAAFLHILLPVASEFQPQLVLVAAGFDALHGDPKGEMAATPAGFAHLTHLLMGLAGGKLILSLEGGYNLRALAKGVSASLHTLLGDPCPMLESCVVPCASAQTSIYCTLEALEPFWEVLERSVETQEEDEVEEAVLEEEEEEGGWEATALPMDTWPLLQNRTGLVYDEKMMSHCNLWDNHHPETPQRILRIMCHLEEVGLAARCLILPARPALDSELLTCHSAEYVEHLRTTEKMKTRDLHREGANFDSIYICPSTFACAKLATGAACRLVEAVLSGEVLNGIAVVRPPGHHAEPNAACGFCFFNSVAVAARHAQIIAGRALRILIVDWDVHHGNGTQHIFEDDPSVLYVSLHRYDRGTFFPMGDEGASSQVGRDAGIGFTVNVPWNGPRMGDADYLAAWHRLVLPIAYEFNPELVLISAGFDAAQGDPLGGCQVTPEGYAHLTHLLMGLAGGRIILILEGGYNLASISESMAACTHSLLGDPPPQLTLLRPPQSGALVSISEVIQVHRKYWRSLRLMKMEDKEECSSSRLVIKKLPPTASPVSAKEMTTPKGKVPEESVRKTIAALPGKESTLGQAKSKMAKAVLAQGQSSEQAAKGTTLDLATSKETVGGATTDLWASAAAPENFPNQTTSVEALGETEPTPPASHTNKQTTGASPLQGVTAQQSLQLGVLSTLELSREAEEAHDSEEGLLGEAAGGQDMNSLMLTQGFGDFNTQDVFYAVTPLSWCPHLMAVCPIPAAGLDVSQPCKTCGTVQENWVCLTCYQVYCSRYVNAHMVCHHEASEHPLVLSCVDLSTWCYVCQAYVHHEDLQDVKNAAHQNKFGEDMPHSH

[5] = system: Mus musculus; assay: Neuroprotective activity in hMFN2-induced CMT2A transgenic mouse model assessed as increase in paw withdrawal threshold at 20 mg/kg, ip qd administered when treated prior with compound dissolved in PBS/PEG400/Tween80/EtOH (50/35/10/5) wt% as vehicle by von Frey test; format: functional, organism-based
[6] = biological target: Histone deacetylase 4 (Homo sapiens, UniProt P56524); assay: Inhibition of recombinant human HDAC4 using Boc-Lys(TFA)-AMC as substrate preincubated for 10 mins followed by substrate addition and measured after 30 mins by fluorescence-based assay
[7] = system: Mus musculus; assay: Neuroprotective activity in hMFN2-induced CMT2A transgenic mouse model assessed as assessed as latency to fall at 20 mg/kg, ip qd administered for 26 weeks when treated prior with compound dissolved in PBS/PEG400/Tween80/EtOH (50/35/10/5) wt% as vehicle by rotarod test; format: functional, organism-based
[8] = Genotoxicity in Salmonella typhimurium TA98 at 5 to 100 uM in presence of liver S9 fraction by Ames test; format: toxicity; conditions: salmonella enterica subsp. enterica serovar typhimurium, s9, 100 µM; dose 5-100 µM
[9] = Half life in C57BL/6J mouse plasma at 15 mg/kg, ip; format: ADME, organism-based
[10] = Half life in human plasma; format: ADME, cell-free
[11] = Genotoxicity in Salmonella typhimurium TA98 at 5 to 100 uM in absence of liver S9 fraction by Ames test; format: toxicity; conditions: salmonella enterica subsp. enterica serovar typhimurium, s9, 100 µM; dose 5-100 µM
[12] = biological target: Histone deacetylase 1 (Homo sapiens, UniProt Q13547)
Description: Inhibition of Nanoluc-fused HDAC1 (unknown origin) expressed in HEK293 cells incubated for 2 hrs by NANOBRET assay

[13] = Total AUC (0 to infinity) in C57BL/6J mouse plasma at 15 mg/kg, ip; format: ADME, organism-based; parameters: route intraperitoneal, time AUCmax, dose 15 mg/kg
[14] = Genotoxicity in Salmonella typhimurium TA1535 at 5 to 100 uM in absence of liver S9 fraction by Ames test; format: toxicity; conditions: salmonella enterica subsp. enterica serovar typhimurium, s9, 100 µM; dose 5-100 µM
[15] = biological target: Histone deacetylase 9 (Homo sapiens, UniProt Q9UKV0); assay: Inhibition of recombinant human HDAC9 using Boc-Lys(TFA)-AMC as substrate preincubated for 10 mins followed by substrate addition and measured after 30 mins by fluorescence-based assay
Histone deacetylase 9, sequence (Q9UKV0 whole entry): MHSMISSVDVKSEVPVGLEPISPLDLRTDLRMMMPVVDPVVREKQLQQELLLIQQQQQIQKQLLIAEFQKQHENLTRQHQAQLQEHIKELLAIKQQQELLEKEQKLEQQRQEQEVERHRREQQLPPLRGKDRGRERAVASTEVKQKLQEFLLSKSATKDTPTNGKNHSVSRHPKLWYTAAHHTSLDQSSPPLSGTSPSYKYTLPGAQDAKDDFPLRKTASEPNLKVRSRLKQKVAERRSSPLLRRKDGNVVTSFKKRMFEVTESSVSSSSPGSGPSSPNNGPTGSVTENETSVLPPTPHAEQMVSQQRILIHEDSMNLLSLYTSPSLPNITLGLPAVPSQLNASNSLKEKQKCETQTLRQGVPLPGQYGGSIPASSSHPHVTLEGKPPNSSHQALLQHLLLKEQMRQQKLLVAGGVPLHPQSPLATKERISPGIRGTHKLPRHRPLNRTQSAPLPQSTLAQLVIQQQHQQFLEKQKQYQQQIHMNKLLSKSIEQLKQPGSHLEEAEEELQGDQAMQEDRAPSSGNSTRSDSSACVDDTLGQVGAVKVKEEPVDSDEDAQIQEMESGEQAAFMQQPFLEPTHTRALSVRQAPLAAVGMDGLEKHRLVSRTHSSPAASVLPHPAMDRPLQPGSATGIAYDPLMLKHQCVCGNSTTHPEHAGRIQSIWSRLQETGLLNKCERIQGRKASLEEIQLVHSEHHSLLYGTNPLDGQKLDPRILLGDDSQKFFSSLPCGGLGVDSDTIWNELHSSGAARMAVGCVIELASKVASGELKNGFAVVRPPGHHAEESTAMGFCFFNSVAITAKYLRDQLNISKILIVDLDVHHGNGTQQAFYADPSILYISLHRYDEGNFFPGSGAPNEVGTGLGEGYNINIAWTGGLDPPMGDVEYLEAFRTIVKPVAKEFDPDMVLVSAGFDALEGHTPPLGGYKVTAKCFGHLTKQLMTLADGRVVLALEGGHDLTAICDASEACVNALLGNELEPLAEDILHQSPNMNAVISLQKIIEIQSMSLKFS

Histone deacetylase 4, sequence (P56524 whole entry): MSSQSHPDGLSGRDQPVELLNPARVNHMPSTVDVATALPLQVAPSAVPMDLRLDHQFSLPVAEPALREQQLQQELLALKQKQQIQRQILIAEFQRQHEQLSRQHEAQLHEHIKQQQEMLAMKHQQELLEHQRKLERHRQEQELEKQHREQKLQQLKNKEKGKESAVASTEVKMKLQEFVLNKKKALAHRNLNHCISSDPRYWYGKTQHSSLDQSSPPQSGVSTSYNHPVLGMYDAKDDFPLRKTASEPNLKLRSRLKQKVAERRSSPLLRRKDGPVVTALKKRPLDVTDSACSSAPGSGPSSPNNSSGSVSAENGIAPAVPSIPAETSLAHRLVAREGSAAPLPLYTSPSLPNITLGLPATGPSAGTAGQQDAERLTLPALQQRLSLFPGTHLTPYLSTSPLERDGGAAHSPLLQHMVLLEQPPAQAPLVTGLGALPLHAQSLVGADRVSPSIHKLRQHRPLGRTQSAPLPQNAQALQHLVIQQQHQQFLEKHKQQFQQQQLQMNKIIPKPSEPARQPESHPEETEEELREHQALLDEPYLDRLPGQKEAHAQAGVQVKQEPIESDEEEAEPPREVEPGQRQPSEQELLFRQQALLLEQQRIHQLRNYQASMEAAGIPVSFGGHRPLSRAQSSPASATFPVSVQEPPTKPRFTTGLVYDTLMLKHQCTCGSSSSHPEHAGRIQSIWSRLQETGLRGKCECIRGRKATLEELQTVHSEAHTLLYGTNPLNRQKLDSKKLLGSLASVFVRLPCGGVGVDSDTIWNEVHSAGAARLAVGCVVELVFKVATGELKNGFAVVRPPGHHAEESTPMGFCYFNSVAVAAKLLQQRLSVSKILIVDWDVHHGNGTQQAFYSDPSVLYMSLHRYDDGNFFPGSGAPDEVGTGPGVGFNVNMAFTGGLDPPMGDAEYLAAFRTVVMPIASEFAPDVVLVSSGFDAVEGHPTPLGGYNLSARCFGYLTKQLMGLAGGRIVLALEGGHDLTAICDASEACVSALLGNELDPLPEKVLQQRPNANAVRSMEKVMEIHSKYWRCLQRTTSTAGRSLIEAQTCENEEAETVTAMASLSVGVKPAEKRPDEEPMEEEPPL
Histone deacetylase 1, sequence (Q13547 whole entry): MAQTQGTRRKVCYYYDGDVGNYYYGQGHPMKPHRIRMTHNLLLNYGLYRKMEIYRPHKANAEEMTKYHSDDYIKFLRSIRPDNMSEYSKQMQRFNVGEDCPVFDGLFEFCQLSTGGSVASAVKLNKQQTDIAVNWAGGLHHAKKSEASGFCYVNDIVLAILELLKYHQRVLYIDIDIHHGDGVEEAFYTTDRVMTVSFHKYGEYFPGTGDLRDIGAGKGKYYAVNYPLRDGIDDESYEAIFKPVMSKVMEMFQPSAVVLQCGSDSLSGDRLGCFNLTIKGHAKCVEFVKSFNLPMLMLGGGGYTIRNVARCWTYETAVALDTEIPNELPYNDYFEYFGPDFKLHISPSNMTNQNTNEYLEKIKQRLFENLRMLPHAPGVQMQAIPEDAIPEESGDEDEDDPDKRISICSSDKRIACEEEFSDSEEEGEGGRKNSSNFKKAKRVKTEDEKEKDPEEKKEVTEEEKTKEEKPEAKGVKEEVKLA

Which Activity [1] does the source give for `NC(=O)c1ccc2c(c1)CCCN2Cc1ccc(C(=O)NO)cc1` here?
The Activity was “Non-Toxic”.

What about the IC50 [2] of the same compound?
Its IC50 is 0.651 µM.

And the Activity [3]?
Its Activity is “Non-Toxic”.

What about the inhibition [4] of the same compound?
Its inhibition is “Active”.

What about the Activity [5] of the same compound?
Its Activity is “Active”.

What about the IC50 [6] of the same compound?
The IC50 was 0.454 µM.

What about the Activity [7] of the same compound?
Its Activity is “Active”.

What about the Activity [8] of the same compound?
The Activity was “Non-Toxic”.

What about the half-life [9] of the same compound?
Its half-life is 26.4 min.

And the half-life [10]?
Its half-life is over 400 min.

And the Activity [11]?
The Activity was “Non-Toxic”.

And the IC50 [12]?
The IC50 was 4.83 µM.

And the AUC(0-inf) [13]?
The AUC(0-inf) was 1.75 µg·h/mL.

What about the Activity [14] of the same compound?
Its Activity is “Non-Toxic”.

And the IC50 [15]?
The IC50 was 0.65 µM.
